Earlier results in US20070098786A1, “ENTERIC VALPROIC ACID” (Banner Pharmacaps, Inc., priority 2005, published 2007).

solubility in water: soluble in water
Compound: CCCC(CCC)C(=O)O [Divalproex sodium]
